Results published in PubChem BioAssay AID256 (DTP/NCI, 2004).
“And” between values parts separate entries of the source, which are not always exact repeats. Equal entries are not always repeated. Toxic doses and inconclusive results are not listed. Rule for the calls: active = survival T/C of 150% or more; inactive = T/C below 125% in these data.

System: CD2F1 mice, L1210 leukemia ip, survival T/C
Assay: NCI In Vivo Anticancer Drug Screen. Data for tumor model L1210 Leukemia (intraperitoneal) in CD2F1 (CDF1) mice
Conditions: higher = longer survival
In short: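 Read-out first: treated-group measurement over vehicle-control measurement, expressed as a ratio. Animals bore a transplanted tumor line and were dosed with compound or vehicle.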

[1] = endpoint: mean survival time, dose: 100.0 mg/kg/injection, schedule: Q01DX009 (ip), vehicle: saline with Tween-80
[2] = endpoint: mean survival time, dose: 100.0 mg/kg/injection, schedule: Q04DX003 (ip), vehicle: saline with Tween-80
[3] = endpoint: mean survival time, dose: 200.0 mg/kg/injection, schedule: Q01DX009 (ip), vehicle: saline with Tween-80
[4] = endpoint: mean survival time, dose: 200.0 mg/kg/injection, schedule: Q04DX003 (ip), vehicle: saline with Tween-80
[5] = endpoint: mean survival time, dose: 400.0 mg/kg/injection, schedule: Q01DX009 (ip), vehicle: saline with Tween-80
[6] = endpoint: mean survival time, dose: 400.0 mg/kg/injection, schedule: Q04DX003 (ip), vehicle: saline with Tween-80
[7] = endpoint: mean survival time, dose: 12.5 mg/kg/injection, schedule: Q01DX009 (ip), vehicle: saline with Tween-80
[8] = endpoint: mean survival time, dose: 25.0 mg/kg/injection, schedule: Q01DX009 (ip), vehicle: saline with Tween-80
[9] = endpoint: mean survival time, dose: 50.0 mg/kg/injection, schedule: Q01DX009 (ip), vehicle: saline with Tween-80
[10] = endpoint: mean survival time, dose: 12.5 mg/kg/injection, schedule: Q01DX009 (ip), vehicle: saline
[11] = endpoint: mean survival time, dose: 25.0 mg/kg/injection, schedule: Q01DX009 (ip), vehicle: saline
[12] = endpoint: mean survival time, dose: 50.0 mg/kg/injection, schedule: Q01DX009 (ip), vehicle: saline

Measured: T/C

CN(C)c1ccc(CN2CCCN(Cc3ccc(N(C)C)cc3)C2c2ccncc2)cc1
inactive: [1] 94 % of control | [2] 104 % of control | [3] 95 % of control | [4] 103 % of control | [5] 95 % of control | [6] 103 % of control

c1cnc2c(OB(C3CCCCC3)C3CCCCC3)cccc2c1
inactive: endpoint: mean survival time, dose: 100.0 mg/kg/injection, schedule: Q01DX001 (ip), vehicle: saline with Tween-80 105 % of control | endpoint: mean survival time, dose: 200.0 mg/kg/injection, schedule: Q01DX001 (ip), vehicle: saline with Tween-80 91 % of control | endpoint: mean survival time, dose: 400.0 mg/kg/injection, schedule: Q01DX001 (ip), vehicle: saline with Tween-80 91 % of control

C(=NCCN=Cc1ccccc1)c1ccccc1
inactive: [1] 97 % of control | [3] 97 % of control | [5] 96 % of control

[CH3][Sb]([CH3])([CH3])([O]C(=O)CBr)[O]C(=O)CBr
inactive: [7] 102 % of control | [8] 100 % of control | [9] 96 % of control

COC(=O)C1=NC=NC1=[N+]=[N-]
inactive: endpoint: mean survival time, dose: 10.0 mg/kg/injection, schedule: Q01DX001 (ip), vehicle: saline 96 % of control | endpoint: mean survival time, dose: 20.0 mg/kg/injection, schedule: Q01DX001 (ip), vehicle: saline 93 % of control

Nc1nc(N)c(N=Nc2ccc(S(=O)(=O)O)cc2)c(N)n1
inactive: [1] 94 % of control | [3] 94 % of control | [5] 98 % of control

O=C(CCl)Nc1nccs1
inactive: [7] 100 % of control | [8] 95 % of control | [9] 97 % of control | [1] 92 % of control

O=C1OC(O)C(Br)=C1Br (stereo not drawn)
inactive: endpoint: mean survival time, dose: 100.0 mg/kg/injection, schedule: Q04DX002 (ip), vehicle: Klucel (hydroxypropylcellulose) (HPC) 105 % of control | endpoint: mean survival time, dose: 200.0 mg/kg/injection, schedule: Q04DX002 (ip), vehicle: Klucel (hydroxypropylcellulose) (HPC) 91 % of control | endpoint: mean survival time, dose: 400.0 mg/kg/injection, schedule: Q04DX002 (ip), vehicle: Klucel (hydroxypropylcellulose) (HPC) 89 % of control

Cc1cc(SCSc2cc(C)[o+]c(C)c2)cc(C)[o+]1
inactive: endpoint: mean survival time, dose: 100.0 mg/kg/injection, schedule: Q04DX003 (ip), vehicle: Klucel (hydroxypropylcellulose) (HPC) 100 % of control | endpoint: mean survival time, dose: 200.0 mg/kg/injection, schedule: Q04DX003 (ip), vehicle: Klucel (hydroxypropylcellulose) (HPC) 104 % of control | endpoint: mean survival time, dose: 400.0 mg/kg/injection, schedule: Q04DX003 (ip), vehicle: Klucel (hydroxypropylcellulose) (HPC) 102 % of control

CCOC(=O)C(C(C)=O)C(=O)/C=C/c1ccccc1 (stereo not drawn)
inactive: [2] 98 % of control | [4] 103 % of control | [6] 97 % of control

C=CCCCCCCCCC(=O)NCCCC(OCC)OCC
inactive: [1] 100 % of control | [3] 100 % of control | [5] 98 % of control

O=C(O)C(CNC(=O)C(F)(F)F)Cc1ccc([N+](=O)[O-])cc1 (stereo not drawn)
inactive: [10] 98 % of control and 101 % of control | [11] 98 % of control | [12] 97 % of control and 107 % of control | endpoint: mean survival time, dose: 100.0 mg/kg/injection, schedule: Q01DX009 (ip), vehicle: saline 103 % of control

CCCCCCCCn1nnnc1N
inactive: endpoint: mean survival time, dose: 12.5 mg/kg/injection, schedule: Q01DX001 (ip), vehicle: Klucel (hydroxypropylcellulose) (HPC) 112 % of control | endpoint: mean survival time, dose: 25.0 mg/kg/injection, schedule: Q01DX001 (ip), vehicle: Klucel (hydroxypropylcellulose) (HPC) 97 % of control | endpoint: mean survival time, dose: 50.0 mg/kg/injection, schedule: Q01DX001 (ip), vehicle: Klucel (hydroxypropylcellulose) (HPC) 104 % of control

Cc1cn(C2CC(OP(=O)(O)OCC3OC(n4cc(C)c(=O)[nH]c4=O)CC3OP(=O)(O)OCC3OC(n4cc(C)c(=O)[nH]c4=O)CC3OP(=O)(O)OCC3OC(n4cc(C)c(=O)[nH]c4=O)CC3OP(=O)(O)OCC3OC(n4ccc(N)nc4=O)C(O)C3O)C(CO)O2)c(=O)[nH]c1=O (stereo not drawn)
inactive: endpoint: median survival time, dose: 25.0 mg/kg/injection, schedule: Q01DX005 (ip), vehicle: saline 111 % of control | endpoint: median survival time, dose: 50.0 mg/kg/injection, schedule: Q01DX005 (ip), vehicle: saline 114 % of control | endpoint: median survival time, dose: 100.0 mg/kg/injection, schedule: Q01DX005 (ip), vehicle: saline 124 % of control

COC(=O)c1ccccc1Nc1c2ccc(Cl)cc2nc2c1c(C)nn2C
inactive: [1] 96 % of control | [2] 101 % of control | [3] 100 % of control | [4] 95 % of control | [5] 97 % of control | [6] 106 % of control

Cc1cc[n+]([O-])c(N(C(=O)c2ccccc2)C(=O)c2ccccc2)c1
inactive: [1] 98 % of control | [2] 95 % of control | [3] 102 % of control | [4] 103 % of control | [5] 107 % of control | [6] 97 % of control

O=C(CBr)c1cc(-c2ccccc2)nc2c(Cl)cc(Cl)cc12
inactive: endpoint: mean survival time, dose: 100.0 mg/kg/injection, schedule: Q01DX001 (ip), vehicle: saline 100 % of control | endpoint: mean survival time, dose: 200.0 mg/kg/injection, schedule: Q01DX001 (ip), vehicle: saline 103 % of control | endpoint: mean survival time, dose: 400.0 mg/kg/injection, schedule: Q01DX001 (ip), vehicle: saline 97 % of control

OCCNc1ccc(I)cc1
inactive: [2] 105 % of control | [4] 112 % of control | [6] 103 % of control

O=C(c1cccnc1)n1cc2c(n1)C1=C(CCCC1)CC2
inactive: endpoint: mean survival time, dose: 50.0 mg/kg/injection, schedule: Q01DX009 (ip), vehicle: Klucel (hydroxypropylcellulose) (HPC) 90 % of control | endpoint: mean survival time, dose: 100.0 mg/kg/injection, schedule: Q01DX009 (ip), vehicle: Klucel (hydroxypropylcellulose) (HPC) 105 % of control | endpoint: mean survival time, dose: 200.0 mg/kg/injection, schedule: Q01DX009 (ip), vehicle: Klucel (hydroxypropylcellulose) (HPC) 102 % of control

O=S(=O)(O)SCCN1CCCC1
inactive: [10] 107 % of control | endpoint: mean survival time, dose: 12.5 mg/kg/injection, schedule: Q04DX003 (ip), vehicle: saline sonified 101 % of control | [11] 104 % of control | endpoint: mean survival time, dose: 25.0 mg/kg/injection, schedule: Q04DX003 (ip), vehicle: saline sonified 98 % of control | [12] 102 % of control | endpoint: mean survival time, dose: 50.0 mg/kg/injection, schedule: Q04DX003 (ip), vehicle: saline sonified 96 % of control
